Where two headings read alike, the source gives them in different places.
What was measured:
Assay in all cases: biochemical
Type in all cases: binding
DRB5*0101 = DRB5*0101 (Homo sapiens, UniProt P01903+Q30154)
DRB1*0701 = DRB1*0701 (Homo sapiens, UniProt P01903+P01911, A100R/A102G/A103Q/D57E/D86V/E43K/F76Y/K127E/L162R/M171V/P40G/Q125H/Q99D/R33Q/R42Y/R54Q/S133A/S66F/T210M/V115G/Y107V/Y59L/Y89S)
DRB1*1302 = DRB1*1302 (Homo sapiens, UniProt P01903+P01911, A100E/A169T/K41T/L162R/M171V/P40S/Q125H/Q178H/Q39Y/Q99D/R42S/S66N/T262R/V115G/W38E/Y61H)
DRB1*0101 = DRB1*0101 (Homo sapiens, UniProt P01903+P01911, A100R/D57E/F55L/F60I/F76Y/I96L/L162R/M171V/P40L/Q125E/R42F/V115G/Y59C)
DRB3*0101 = DRB3*0101 (Homo sapiens, UniProt P01903+P79483)
DRB1*0401 = DRB1*0401 (Homo sapiens, UniProt P01903+P01911, A100K/A169T/F76Y/I96L/K127E/L162R/M171V/N62H/P40V/Q125Y/R42H/S133A/S149N/S66Y/V115G/V209L/W38E)
DRB1*1101 = DRB1*1101 (Homo sapiens, UniProt P01903+P01911, A100R/A169T/A87E/I96F/K41T/L162R/M171V/P40S/Q125H/Q178H/Q39Y/Q99D/R42S/S66Y/T262R/V115G/W38E)
DRB1*0802 = DRB1*0802 (Homo sapiens, UniProt P01903+P01911, A100R/A103L/A169T/F76Y/H45Y/I96F/K41T/L162R/M171V/P40S/Q125H/Q178H/Q39Y/Q99D/R218S/R42G/S66Y/V115G/W38E)
DRB1*0405 = DRB1*0405 (Homo sapiens, UniProt P01903+P01911, A100R/A169T/D86S/F76Y/I96L/K127E/L162R/M171V/N62H/P40V/Q125Y/R42H/S133A/S149N/S66Y/V115G/V209L/W38E)
DRB4*0101 = DRB4*0101 (Homo sapiens, UniProt P01903+P13762, G164S)
DRB1*0901 = DRB1*0901 (Homo sapiens, UniProt P01903+P01911, A100R/A103E/D57H/D86V/F55Y/F60I/F76Y/I96F/K127E/L162R/M171V/P40D/Q125H/Q99R/R33Q/R42F/S133A/S66N/T210M/V115G/W38K/Y107V/Y59G/Y89S)
DRB1*0301 = DRB1*0301 (Homo sapiens, UniProt P01903+P01911, A100K/A102G/A103R/A169T/F55Y/I96L/K41T/L162R/M171V/P40S/Q125H/Q178H/Q39Y/R42S/S66N/T106N/T262R/W38E/Y61H)
DRB1*1501 = DRB1*1501 (Homo sapiens, UniProt P01903+P01911)
DRB1*0404 = DRB1*0404 (Homo sapiens, UniProt P01903+P01911, A100R/A169T/F76Y/I96L/K127E/L162R/M171V/N62H/P40V/Q125Y/R42H/S133A/S149N/S66Y/V209L/W38E)
[1] = competitive inhibition of radiolabeled standard peptide, '-' distinct from ND, read-out: Binding Affinity (nM) DRB1*1302
[2] = competitive inhibition of radiolabeled standard peptide, '-' distinct from ND, read-out: Binding Affinity (nM) DRB1*0901

DRB1*0301, sequence (P01903 26-254, other chains not shown): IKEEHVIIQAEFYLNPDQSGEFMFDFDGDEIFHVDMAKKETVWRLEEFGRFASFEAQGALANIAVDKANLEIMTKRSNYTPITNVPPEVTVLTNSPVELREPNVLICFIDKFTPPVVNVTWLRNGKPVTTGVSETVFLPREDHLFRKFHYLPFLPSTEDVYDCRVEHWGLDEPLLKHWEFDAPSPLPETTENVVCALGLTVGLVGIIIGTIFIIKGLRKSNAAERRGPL
DRB1*1101, sequence (P01903 26-254, other chains not shown): as above
DRB1*1302, sequence (P01903 26-254 limits assumed, other chains not shown): as the sequence (P01903 26-254, other chains not shown) above

With CC[C@H](C)[C@H](NC(=O)[C@H](CC(=O)O)NC(=O)[C@@H](N)CC(C)C)C(=O)N[C@@H](CCC(=O)O)C(=O)N[C@@H](CC(C)C)C(=O)N[C@@H](CCC(N)=O)C(=O)N[C@@H](CCCCN)C(=O)N[C@H](C(=O)N[C@@H](CCC(=O)O)C(=O)N[C@@H](C)C(=O)N[C@H](C(=O)N[C@@H](CCC(N)=O)C(=O)N[C@@H](CC(C)C)C(=O)N[C@@H](C)C(=O)N[C@H](C(=O)O)[C@@H](C)O)[C@@H](C)O)[C@@H](C)O [Envelope 41-55] the IC50 (DRB5*0101) was 684 nM, the IC50 (DRB1*0701) was 3.1 nM and the IC50 (DRB1*1302; [1]) was 27 nM. For the same compound, the IC50 (DRB1*0101) was 2.3 nM, the IC50 (DRB3*0101) was 3330 nM and the IC50 (DRB1*0401) was 349 nM. For the same compound, the IC50 (DRB1*1101) was 3260 nM, the IC50 (DRB1*0802) was 5.1 nM and the IC50 (DRB1*0405) was 583 nM. For the same compound, the IC50 (DRB4*0101) was 6.5 nM and the IC50 (DRB1*0901; [2]) was 132 nM.
Work on CC[C@H](C)[C@H](NC(=O)[C@H](CCCCN)NC(=O)CNC(=O)[C@H](CCC(=O)O)NC(=O)[C@@H](NC(=O)[C@H](CS)NC(=O)[C@H](CC(C)C)NC(=O)[C@H](CCCCN)NC(=O)[C@H](CCCNC(=N)N)NC(=O)[C@H](CC(C)C)NC(=O)[C@@H](NC(=O)[C@H](C)NC(=O)[C@H](CC(C)C)NC(=O)[C@H](CCC(N)=O)NC(=O)[C@@H](N)[C@@H](C)O)[C@@H](C)O)[C@@H](C)CC)C(=O)O [Envelope 51-65] yielded an IC50 (DRB5*0101) of 1850 nM, an IC50 (DRB1*0301) of 2510 nM and an IC50 (DRB1*1501) of 982 nM. For the same compound, the IC50 (DRB1*1302; [1]) was 1080 nM, the IC50 (DRB3*0101) was 8300 nM and the IC50 (DRB1*0401) was 2140 nM. It also gave an IC50 (DRB1*1101) of 40 nM, an IC50 (DRB1*0802) of 130 nM and an IC50 (DRB1*0405) of 6340 nM. The IC50 (DRB1*0404) was 10100 nM, the IC50 (DRB4*0101) was 154 nM and the IC50 (DRB1*0901; [2]) was 2340 nM.
CSCC[C@H](NC(=O)CNC(=O)[C@H](CCCCN)NC(=O)[C@H](CC(C)C)NC(=O)[C@H](CCC(=O)O)NC(=O)[C@H](CC(C)C)NC(=O)[C@H](CCCCN)NC(=O)[C@H](CC(=O)O)NC(=O)[C@H](CCSC)NC(=O)[C@H](CCCCN)NC(=O)[C@H](CC(C)C)NC(=O)[C@H](CCCNC(=N)N)NC(=O)[C@H](CS)NC(=O)[C@H](CCCCN)NC(=O)[C@@H](N)CC(C)C)C(=O)O [Envelope 281-295] was tested, and the IC50 (DRB5*0101) was 2500 nM, the IC50 (DRB1*0301) was 17 nM and the IC50 (DRB1*0701) was 2160 nM. The IC50 (DRB1*1501) was 652 nM, the IC50 (DRB1*1302) was 915 nM and the IC50 (DRB3*0101) was 31 nM. The IC50 (DRB1*0401) was 2910 nM, the IC50 (DRB1*1101) was 3330 nM and the IC50 (DRB1*0802) was 4460 nM. For the same compound, the IC50 (DRB1*0405) was 9740 nM, the IC50 (DRB1*0404) was 13200 nM and the IC50 (DRB1*0901) was 7010 nM.
CC[C@H](C)[C@H](NC(=O)[C@H](CC(=O)O)NC(=O)CNC(=O)[C@@H](NC(=O)[C@@H](NC(=O)[C@@H](NC(=O)[C@@H](NC(=O)[C@H](CC(C)C)NC(=O)[C@@H](N)CCCCN)[C@@H](C)O)C(C)C)C(C)C)C(C)C)C(=O)N[C@H](C(=O)NCC(=O)N[C@H](C(=O)N[C@@H](CC(C)C)C(=O)N[C@@H](CCC(=O)O)C(=O)N[C@@H](CCC(N)=O)C(=O)O)C(C)C)[C@@H](C)CC [NS1 85-99] was tested, and the IC50 (DRB5*0101) was 77 nM, the IC50 (DRB1*0301) was 533 nM and the IC50 (DRB1*0701) was 70 nM. The IC50 (DRB1*1501) was 21 nM, the IC50 (DRB1*1302; [1]) was 483 nM and the IC50 (DRB3*0101) was 1680 nM. It also gave an IC50 (DRB1*0401) of 88 nM, an IC50 (DRB1*1101) of 807 nM and an IC50 (DRB1*0405) of 1400 nM. The IC50 (DRB1*0404) was 2660 nM, the IC50 (DRB4*0101) was 220 nM and the IC50 (DRB1*0901; [2]) was 42 nM.
